# Experimental data published in patent publication US20070082910A1, “Specific nad(p)h oxidase inhibitor” (Mitsubishi Pharma Corporation, priority 2003, published 2007).
# Marks after values point to notes of the source that are not given here.
# Tests used:
# [1] = tested on: NAD(P)H oxidase in normal rat aorta; assay: Effect on normal rat NAD(P)H oxidase (superoxide anion production in aorta after administration); type: in vivo; conditions: 10 mg/kg for 3 days
# Experimental: The test compound (10 mg/kg) was administered to normal male Wistar rats (Japan SLC) for 3 days, and the production amount of superoxide anion in the aorta was measured in the same manner as in Experimental Example 2.
# The inhibitory rate (%) was calculated by the following formula: inhibitory rate (%)=100−(A/B)×100 wherein A is the standardized chemiluminescence value of the rats administered with the test compound, and B is the standardized chemiluminescence value of the rats without administration of the test compound (control group).
# leukocyte NADPH oxidase = assay: Effect on leukocyte NADPH oxidase (PMA-stimulated lucigenin chemiluminescence); type: cell-based, rat
# Experimental: Blood was drawn from the abdominal aorta of normal male Wister rats (Japan SLC) and immediately mixed with an ice-cold lysis buffer at 42 mL of the buffer per 3 mL of the blood.
# After 5 min, the mixture was centrifuged at 4° C., 1100 rpm for 5 min. The precipitate was suspended in an ice-cold Lysis buffer, and centrifuged again at 4° C., 1100 rpm for 5 min. This operation was repeated 3 times to obtain leukocytes. The obtained leukocytes were suspended in Krebs-Hepes buffer and the number of the cells was adjusted to 1×10^6/ml. 0.25 mM Lucigenin and the test agent were added, Phorbol 12-myristate 13-acetate (hereinafter to be indicated as “PMA”, SIGMA) was further added, and the chemiluminescence value was measured at 37° C. for 10 min.
# The inhibitory rate (%) was calculated by the following formula: inhibitory rate (%)=100−[(A−C)/(B−C))×[…] wherein A is the total chemiluminescence value of the leukocyte suspension with the addition of the test compound, B is the total chemiluminescence value of the leukocyte suspension (control) without addition of the test compound, and C is the total chemiluminescence value of the leukocyte suspension without stimulation with PMA.
# [2] = tested on: rat acute myocardial infarction model; assay: Rat left coronary artery-ligated myocardial infarction model; type: in vivo
# Description: Male SD rats (Japan SLC) were fixed in the dorsal position with ether anesthesia, and subjected to thoracotomy by vertical incision along the left sternal line according to the method by Selye H. et al. (Angiology, 1960, 11, 398) to expose the heart. The left coronary artery was ligated using a silk thread (No. 4) at 1-2 mm from the basal part, the heart was put back in place and quickly deaerated, and the chest was closed. The rat was confirmed to have myocardial infarction with an electrocardiograph (NIHON KOHDEN). The rat was exsanguinated to death from the abdominal aorta 24 hr after ligation. The heart was removed, and a circular cross-section at the center thereof was incubated in a solution of 1% 2,3,5-triphenyltetrazolium chloride (hereinafter to be indicated as “TTC”) in 0.1 M phosphate buffer for 20 min under light shielding. Thereafter, the section was fixed with formalin buffer, traced, and the areas of infarction region (TTC unstained region) and left ventricle were calculated. Immediately after coronary artery ligation, compound A was suspended in 1% CMC solution and orally administered to the rat.
# The inhibitory rate was calculated by the following formula: [formula] [formula]
# In addition, compound A (1 mg/kg) was orally administered at 15 min, 1 hr and 3 hr after ligation, and infarction inhibitory effect was examined.
# [3] = tested on: atherosclerosis rabbit model; assay: Atherosclerosis inhibitory effect in cholesterol-fed rabbits; type: in vivo; conditions: for lipid-deposition area (%), abdominal aorta / lipid-deposition area (%), thoracic aorta: 12 weeks, 0.67% cholesterol feed; for lipid-deposition area (%), abdominal aorta / lipid-deposition area (%), thoracic aorta / Plasma lipid concentration TC: mean ± standard error; for Plasma lipid concentration TC: 12 weeks from cholesterol-loading
# Experimental: A 0.67% cholesterol-containing feed (40 g/kg/day) and compound A were given to male NZW rabbits (Japan SLC) for 12 weeks. Blood was drawn from the auricular vein using a heparinized capillary tube, and centrifuged at 3000 rpm for 10 min. The total cholesterol (hereinafter to be indicated as “TC”) value of the obtained plasma was measured by an enzyme assay using a measurement kit.
# After 12 weeks, the carotid artery was peeled and removed with pentobarbital anesthesia, and exsanguinated to remove the aorta. The obtained carotid artery was immediately placed in Krebs buffer, the surrounding tissues were carefully removed, and the ring specimen was prepared trying not to damage endothelial cells. Then, the ring specimen was suspended in a Magnus tank filled with Krebs buffer at 37° C. under an air flow of 95% O2-5% CO2 mixed gas. The experiment was conducted after reaching a steady state by loading 2 g tension.
# For the measurement of a relaxation response, the specimen was contracted in advance with norepinephrine, and when the contraction reached steady state, acetylcholine was cumulatively added. The vascular relaxation rate was determined based on the contraction induced by 10 μM norepinephrine as 100%.
# Using a transducer (NIHON KOHDEN), tension was measured isometrically. The significant difference was tested for by variance analysis with two-way layout (Dunnett's method) relative to the control group.
# The removed aorta was divided into arch aorta, thoracic aorta and abdominal aorta, fixed with 10% formalin buffer, photographed, the area of the lipid adhered to the aorta was measured and the proportion of the area of the lipid-deposition area relative to the area of aorta was determined.
# p22^Phox = assay: Effect on p22^Phox expression induced by oxidized LDL in HUVEC (RT-PCR); type: cell-based, human
# Experimental: HUVEC was seeded in a 24-well collagen-coated plate. Compound A was added, and oxidized LDL (100 μg/mL) prepared from the blood obtained from normal healthy volunteers was added 24 hr later.
# At 24 hr after the oxidized LDL addition, total RNA was […] extracted using MgExtractor (TOYOBO) and DNase I treatment (Nippon gene) was conducted.
# The concentration of the total RNA was calculated by measuring absorbance (OD260) of a fraction therefrom.
# Using the obtained total RNA (100 ng), RT (reverse transcription) reaction (ABI) was carried out to synthesis cDNA.
# Using the synthesized cDNA (10 μL), PCR (polymerase chain reaction) was carried out (ABI), and expression amounts of p22^Phox which is a major component of NAD(P)H oxidase, and β-actin as an internal standard were measured.
# The expression amount of p22^Phox was standardized to the expression amount of β-actin and expressed based on the expression amount of (p22^Phox)/( β-actin) of normal as 100%.
# [4] = 0.1 mg/kg oral immediately after coronary artery ligation, 24 hr
# [5] = 0.3 mg/kg oral immediately after coronary artery ligation, 24 hr
# [6] = 1 mg/kg oral immediately after coronary artery ligation, 24 hr
# [7] = 1 mg/kg oral, 15 min after ligation
# [8] = 1 mg/kg oral, 1 hr after ligation
# [9] = 1 mg/kg oral, 3 hr after ligation
compound,measurement,setting,value
C[C@@H](Nc1nnc(-c2ccccc2)c2ccccc12)C1CCCCC1.O=C(O)/C=C\C(=O)O [compound A],"inhibitory rate (%), NAD(P)H oxidase in normal rat aorta",[1],1.8%
same,effect on superoxide anion production in normal rat,[1]; result in words,did not affect the superoxide anion production
same,chemiluminescence (×10^5 RLU/wet weight of aorta),"[1]; normal rat aorta, mean ± standard error",3.89 ± 3.0 ×10^5 RLU/wet weight of aorta
same,"inhibitory rate (%), leukocyte NADPH oxidase","leukocyte NADPH oxidase; 1 μM, PMA-stimulated rat leukocytes, mean ± standard error",2.4 ± 13.6%
same,inhibitory effect on leukocyte NADPH oxidase,leukocyte NADPH oxidase; result in words,did not show an inhibitory effect on leukocyte NADPH oxidase
same,infarction rate (%),[2]; [4],40%
same,inhibitory rate (%) of infarction,[2]; [4],0%
same,infarction rate (%),[2]; [5],17.2** %
same,inhibitory rate (%) of infarction,[2]; [5],57** %
same,infarction rate (%),[2]; [6],6.3** %
same,inhibitory rate (%) of infarction,[2]; [6],84.3** %
same,infarction rate (%),[2]; [7],10.5** %
same,inhibitory rate (%) of infarction,[2]; [7],73.8%
same,infarction rate (%),[2]; [8],16.7** %
same,inhibitory rate (%) of infarction,[2]; [8],58.3%
same,infarction rate (%),[2]; [9],29.3* %
same,inhibitory rate (%) of infarction,[2]; [9],26.8%
same,"lipid-deposition area (%), abdominal aorta",[3]; 1 mg/kg,25.4 ± 6.2 %
same,"lipid-deposition area (%), thoracic aorta",[3]; 1 mg/kg,62.1 ± 10.0 %
same,Plasma lipid concentration TC,[3]; 1 mg/kg,1895.3 ± 244.6 mg/dL
same,"lipid-deposition area (%), abdominal aorta",[3]; 10 mg/kg,18.2 ± 2.2 %
same,"lipid-deposition area (%), thoracic aorta",[3]; 10 mg/kg,56.5 ± 10.5 %
same,Plasma lipid concentration TC,[3]; 10 mg/kg,1887.9 ± 103.9 mg/dL
same,endothelial-dependent relaxation response of carotid artery by Ach,"[3]; Ach 10^−8 to 10^−5 M, FIG. 1, result in words",significantly improved as compared to the control group
same,"p22^phox expression ((p22^Phox)/(β-actin), normal as 100%)","p22^Phox; oxidized LDL 100 μg/mL + 0.1 μM compound, mean ± standard error",116.64 ± 16.61 %
same,p22^Phox expression relative to the normal group,p22^Phox; oxidized LDL addition,1.2 fold
